Laboratory results as given in ChEMBL document CHEMBL5325462, “Regioselective synthesis and in vitro cytotoxicity evaluation of 3-thiooxindole derivatives: Tubulin polymerization inhibition and apoptosis inducing studies” (Bioorg Med Chem, 2023).
Activity calls are given as the source filed them. No cut-off for these calls is given here.

What was measured:
HCT-116 [1] = assay: Inhibition of cell invasion in human HCT-116 cells at 3.32 to 13.28 uM measured after 48 hrs by phase contrast microscopic analysis; type: functional, cell-based; conditions: dose 3.32-13.28 µM
BT-474 = assay: Cytotoxicity against human BT-474 cells assessed as inhibition of cell growth measured after 72 hrs by MTT assay; type: functional, cell-based; conditions: BT-474, 72 h
Tubulin = assay: Inhibition of tubulin polymerization (unknown origin) by absorbance based analysis; type: protein-complex assay, Homo sapiens
HCT-116 [2] = assay: Induction of apoptosis in human HCT-116 cells assessed as necrotic cells at 6.64 uM incubated for 24 hrs by Annexin V-FITC/PI staining based flow cytometry analysis (Rvb= 0.0%); type: functional
Cell membrane [3] = assay: Induction of mitochondrial membrane potential loss in human HCT-116 cells assessed as depolarized cells at 3.32 uM incubated for 72 hrs by JC-1 staining based flow cytometry analysis (reference value: 0.4 %); type: subcellular
HCT-116 [4] = assay: Induction of apoptosis in human HCT-116 cells assessed as viable cells at 6.64 uM incubated for 24 hrs by Annexin V-FITC/PI staining based flow cytometry analysis (Rvb= 99.7%); type: functional; conditions: read-out: Activity
HCT-116 [5] = assay: Induction of morphological changes in human HCT-116 cells assessed as formation of necrotic bodies incubated for 24 hrs by acridine orange/ethidium bromide staining based fluorescence microscopic analysis; type: functional, cell-based
HCT-116 [6] = assay: Induction of nuclear morphological changes in human HCT-116 cells assessed as change in nuclear shape measured after 48 hrs by DAPI-staining based fluorescence microscopic analysis; type: functional, cell-based
HCT-116 [7] = assay: Cell cycle arrest in human HCT-116 cells assessed as accumulation of cells in G0/G1 phase at 3.32 uM measured after 48 hrs by PI staining based flow cytometry method (reference value: 79%); type: functional
HCT-116 [8] = assay: Cytotoxicity against human HCT-116 cells assessed as inhibition of cell growth measured after 72 hrs by MTT assay; type: functional, cell-based; conditions: HCT-116, 72 h
HCT-116 [9] = assay: Cell cycle arrest in human HCT-116 cells assessed as accumulation of cells in sub-G1 phase at 6.64 uM measured after 48 hrs by PI staining based flow cytometry method (reference value: 4.6%); type: functional
HCT-116 [10] = assay: Induction of nuclear morphological changes in human HCT-116 cells assessed as horseshoe shaped nuclei formation measured after 48 hrs by DAPI-staining based fluorescence microscopic analysis; type: functional, cell-based
HCT-116 [11] = assay: Cell cycle arrest in human HCT-116 cells assessed as accumulation of cells in S phase at 6.64 uM measured after 48 hrs by PI staining based flow cytometry method (reference value: 8.8%); type: functional
Cell membrane [12] = assay: Induction of mitochondrial membrane potential loss in human HCT-116 cells assessed as polarized cells at 13.28 uM incubated for 72 hrs by JC-1 staining based flow cytometry analysis (reference value: 99.6 %); type: subcellular
HCT-116 [13] = assay: Induction of apoptosis in human HCT-116 cells assessed as viable cells at 13.28 uM incubated for 24 hrs by Annexin V-FITC/PI staining based flow cytometry analysis (Rvb= 99.7%); type: functional; conditions: read-out: Activity
HCT-116 [14] = assay: Induction of apoptosis in human HCT-116 cells assessed as early apoptotic cells at 6.64 uM incubated for 24 hrs by Annexin V-FITC/PI staining based flow cytometry analysis (Rvb= 0.2%); type: functional
Cell membrane [15] = assay: Induction of mitochondrial membrane potential loss in human HCT-116 cells assessed as depolarized cells at 6.64 uM incubated for 72 hrs by JC-1 staining based flow cytometry analysis (reference value: 0.4 %); type: subcellular
HCT-116 [16] = assay: Inhibition of colony formation in human HCT-116 cells measured after 14 days; type: functional, cell-based; conditions: dose 3.32-13.28 µM, time 14.0 day
HCT-116 [17] = assay: Cell cycle arrest in human HCT-116 cells assessed as accumulation of cells in S phase at 3.32 uM measured after 48 hrs by PI staining based flow cytometry method (reference value: 8.8%); type: functional
HCT-116 [18] = assay: Induction of apoptosis in human HCT-116 cells assessed as late apoptotic cells at 13.28 uM incubated for 24 hrs by Annexin V-FITC/PI staining based flow cytometry analysis (Rvb= 0.1%); type: functional
HCT-116 [19] = assay: Induction of apoptosis in human HCT-116 cells assessed as reduction in cell viability at 3.32 to 13.28 uM measured after 48 hrs by phase contrast microscope; type: functional, cell-based; conditions: dose 3.32-13.28 µM
HCT-116 [20] = assay: Induction of apoptosis in human HCT-116 cells assessed as late apoptotic cells at 3.32 uM incubated for 24 hrs by Annexin V-FITC/PI staining based flow cytometry analysis (Rvb= 0.1%); type: functional
HCT-116 [21] = assay: Induction of apoptosis in human HCT-116 cells assessed as necrotic cells at 3.32 uM incubated for 24 hrs by Annexin V-FITC/PI staining based flow cytometry analysis (Rvb= 0.0%); type: functional
HCT-116 [22] = assay: Induction of apoptosis in human HCT-116 cells assessed as early apoptotic cells at 3.32 uM incubated for 24 hrs by Annexin V-FITC/PI staining based flow cytometry analysis (Rvb= 0.2%); type: functional
HCT-116 [23] = assay: Inhibition of colony formation in human HCT-116 cells at 3.32 to 13.28 uM measured after 14 days; type: functional, cell-based; conditions: dose 3.32-13.28 µM, time 14.0 day
Cell membrane [24] = assay: Induction of mitochondrial membrane potential loss in human HCT-116 cells assessed as polarized cells at 3.32 uM incubated for 72 hrs by JC-1 staining based flow cytometry analysis (reference value: 99.6 %); type: subcellular
[25] = Cytotoxicity against rat NRK cells assessed as inhibition of cell growth measured after 72 hrs by MTT assay; type: toxicity, cell-based
A549 = assay: Cytotoxicity against human A549 cells assessed as inhibition of cell growth measured after 72 hrs by MTT assay; type: functional, cell-based; conditions: A549, 72 h
Cell membrane [26] = assay: Induction of mitochondrial membrane potential loss in human HCT-116 cells assessed as polarized cells at 6.64 uM incubated for 72 hrs by JC-1 staining based flow cytometry analysis (reference value: 99.6 %); type: subcellular
HCT-116 [27] = assay: Cell cycle arrest in human HCT-116 cells assessed as accumulation of cells in G0/G1 phase at 6.64 uM measured after 48 hrs by PI staining based flow cytometry method (reference value: 79%); type: functional
HCT-116 [28] = assay: Cell cycle arrest in human HCT-116 cells assessed as accumulation of cells in G0/G1 phase at 13.28 uM measured after 48 hrs by PI staining based flow cytometry method (reference value: 79%); type: functional
HCT-116 [29] = assay: Induction of apoptosis in human HCT-116 cells assessed as viable cells at 3.32 uM incubated for 24 hrs by Annexin V-FITC/PI staining based flow cytometry analysis (Rvb= 99.7%); type: functional; conditions: read-out: Activity
Cell membrane [30] = assay: Induction of mitochondrial membrane potential loss in human HCT-116 cells assessed as depolarized cells at 13.28 uM incubated for 72 hrs by JC-1 staining based flow cytometry analysis (reference value: 0.4 %); type: subcellular
HCT-116 [31] = assay: Induction of ROS production in human HCT-116 cells at 3.32 uM incubated for 72 hrs by DCFDA staining based fluorescence microscopic analysis; type: functional, cell-based
HCT-116 [32] = assay: Induction of apoptosis in human HCT-116 cells assessed as necrotic cells at 13.28 uM incubated for 24 hrs by Annexin V-FITC/PI staining based flow cytometry analysis (Rvb= 0.0%); type: functional

Q: What does the source list for `CC(C)(C)S(=O)(=O)NCC1(Sc2nc3ccccc3[nH]2)C(=O)N(Cc2ccc(Br)cc2)c2ccccc21` (stereo not given)?
A: inhibition (HCT-116 [1]): Active; IC50 (BT-474): 14.2 µM; IC50 (Tubulin): 9.73 µM; Activity (HCT-116 [2]): 10.4%; Activity (Cell membrane [3]): 3%; viability at 6.64 µM (HCT-116 [4]): 9.9%; Activity (HCT-116 [5]): Active; Activity (HCT-116 [6]): Dose-Dependent Effect; Activity (HCT-116 [7]): 52%; IC50 (HCT-116 [8]): 6.64 µM; Activity (HCT-116 [9]): 27.4%; Activity (HCT-116 [10]): Dose-Dependent Effect; Activity (HCT-116 [11]): 11.1%; Activity (Cell membrane [12]): 86.7%; viability at 13.28 µM (HCT-116 [13]): 4.2%; Activity (HCT-116 [14]): 21.4%; Activity (Cell membrane [15]): 5.9%; inhibition (HCT-116 [16]): Dose-Dependent Effect; Activity (HCT-116 [17]): 11.7%; Activity (HCT-116 [18]): 84.1%; Activity (HCT-116 [19]): Active; Activity (HCT-116 [20]): 53.4%; Activity (HCT-116 [21]): 0.3%; Activity (HCT-116 [22]): 41.8%; inhibition (HCT-116 [23]): Active; Activity (Cell membrane [24]): 97%; IC50 at 72 h [25]: 38.4 µM; IC50 (A549): 19.2 µM; Activity (Cell membrane [26]): 94.1%; Activity (HCT-116 [27]): 49.2%; Activity (HCT-116 [28]): 41%; viability at 3.32 µM (HCT-116 [29]): 4.5%; Activity (Cell membrane [30]): 13.3%; Activity (HCT-116 [31]): Active; Activity (HCT-116 [32]): 2.9%
